In publication PMC11039692, “SRY-Box transcription factor 9 triggers YAP nuclear entry via direct interaction in tumors” (Signal Transduction and Targeted Therapy, 2024):

Legend:
SOX9-HMG domain = target: T1, SOX9-HMG domain (Homo sapiens, UniProt P48436); experiment: MST binding to SOX9-HMG domain; conditions: 50 mM Tris-HCl pH 7.4, 150 mM NaCl, 0.05% Tween-20, effect of R124K mutation on YAP peptide (aa 115–135)
T1 construct: made in house; host or cells: Escherichia coli
Experimental: (§1) His-tagged YAP and the SOX9-HMG domain purified from Escherichia coli were labeled with 25 nM RED-tris-NTA 2nd Generation dye at room temperature for 10 min. Then, the labeled protein was incubated with a serially diluted peptide or protein for 10 min at room temperature. MST buffer containing 50 mM Tris-HCl [pH 7.4], 150 mM NaCl, and 0.05% Tween-20 was used in all measurements. The solution was centrifuged for 10 min at 4 °C and 15,000 g, and the supernatant was transferred to a fresh tube. The sample was loaded into the capillaries and measured at 40% LED/excitation power and medium MST power. The KD was determined in MO. Affinity Analysis using the KD fit.

YAP-SOX9 interaction [1] = experiment: Co-IP of SOX9-YAP interaction in cells; assay type: cell-based; conditions: V5-IP
Experimental: (§2) For protein preparation, cells were lysed in 2× sodium dodecyl sulfate (SDS) protein lysis buffer (4% SDS, 20% glycerol, 100 mM Tris-Cl [pH 6.8], with PMSF or other protease inhibitors). For co-immunoprecipitation (Co-IP), samples were prepared using Pierce^TM IP lysis buffer (Thermo Fisher Scientific, 87787) following the manufacturer's recommendations. Lysates were centrifuged at 12,000 rpm for 10 min, and the supernatants were collected. The protein concentration was determined using a BCA kit (Beyotime, P0010, Shanghai, China). For Co-IP samples, 1 mg of protein was precipitated with 20 μL of agarose-conjugated antibodies. For immunoblotting, protein samples were separated using SDS-polyacrylamide gel electrophoresis and then transferred onto nitrocellulose membranes (Millipore, HAHY00010).

CTGF, CYR61 and AREG = experiment: qPCR of YAP-target genes in cells; assay type: cell-based; conditions: Huh-7 cells, 10 μM
Experimental: (§3) Total RNA was isolated from cells or tissues with RNAiso Plus Reagent (TaKaRa, 9108). SuperScript Ⅲ reverse transcriptase (Invitrogen,18080093) was employed to synthesize first-strand cDNA. Real-time PCR was performed in an ABI Step One Real-time Detection System (Life Technologies) using SYBR Green (Takara, RR420A). The primer sequences are listed in supplementary Table 2.

[2] = system: luciferase-expressing Huh-7 tumors; experiment: Orthotopic HCC model; assay type: in vivo, BALB/c nude mice; conditions: 2-week delivery
Experimental: (§4) Huh-7 cells (1×106) or Huh-7 cells infected with different viruses were injected subcutaneously into the right flank of male athymic BALB/c nude mice (5 weeks old). Tumor volumes were measured and analyzed using the equation: volume = π/6×length×(width)2.Once the average tumor volume reached approximately 60 mm3, the mice were randomly divided into five groups (eight mice per group) and treated with intratumorally injections of Pep-S-A1, Pep-D125A, or saline twice weekly. For the orthotopic HCC model, 1×10^6 Huh-7 cells expressing luciferase were injected subcutaneously into the right flank of BALB/c nude mice to establish tumor xenografts. The tumor nodules derived from xenograft model and then were divided into 1 mm3 pieces and subsequently implanted into the left lobe of the livers of 5-week-old male BALB/c nude mice to mimic primary HCC. The mice were randomly separated into two groups (eight animals per group) according to the bioluminescence 3 days after implantation. Pep-S-A1 or Pep-D125A was then injected via the tail vein every 5 days. The mice were regularly monitored using a luminal imaging system (Caliper) once each week and killed 2 weeks post tumor fragments transplanted.

Hep3B cells = experiment: Proliferation of HCC cells; assay type: cell-based
SOX9^KO Huh-7 cells = experiment: Proliferation of SOX9KO Huh-7 cells; assay type: cell-based; conditions: SOX9^KO Huh-7 cells treated with Pep-peptides
YAP-TEAD = experiment: 8×GTIIC YAP-TEAD luciferase reporter assay; assay type: cell-based
Experimental: Huh-7 cells were transfected with a vector expressing full-length or truncated SOX9 together with a TEAD4-related reporter plasmid, 8×GTIIC (RIKEN, Japan). The pRL-SV40 (Promega, E2261) vector was transfected into all the treated cells and was used to normalize the data. Luciferase reporter gene assays were assayed with the Dual-Luciferase Reporter Assay System (Promega, E2920). All experiments were replicated a minimum of three times.

HCC cells = experiment: Proliferation of Huh-7 / HCC cells; assay type: cell-based
YAP-SOX9 interaction [3] = experiment: PLA of SOX9-YAP interaction in cells; assay type: cell-based; conditions: HCC cells (DOX-induced Huh-7), peptides 10 μM, 24 h
Experimental: The pretreated cell samples were grown on coverslips, fixed in 4% paraformaldehyde (PFA) for 15 minutes, and then washed two times in PBS. Following a 1-hour incubation at 37 °C with blocking solution® (Sigma-Aldrich, DUO82007), the cells were incubated with primary antibodies at optimal concentrations overnight at 4 °C. After three washes in Buffer A® (Sigma-Aldrich, DUO82049), the samples were incubated with a 1:5 dilution of PLUS® and MINUS® Duolink In Situ PLA Probe (Sigma-Aldrich, DUO92002 and DUO92004) for 1 hour at 37 °C. Three additional washes in Buffer A® preceded a 30-minute incubation with 1 unit/μL of T4 DNA ligase diluted in ligase buffer (1:5, Sigma-Aldrich, DUO92013) at 37 °C. Subsequently, cells were washed three times again in Buffer A® and treated with 5 units/μL of DNA polymerase in diluted polymerase buffer (1:5, Sigma-Aldrich, DUO92013) for 100 min at 37 °C. Finally, cells were washed twice for 10 minutes each in 1× Buffer B® (Sigma-Aldrich, DUO82049), then quickly washed for 1 min in 0.01× Buffer B®. The slides were mounted using DUOlink in situ mounting medium containing DAPI, and the images were captured using a Leica TCS SP8 confocal microscope.

YAP [4] = target: T2, YAP (Homo sapiens, UniProt P46937); experiment: YAP nuclear level / nuclear translocation in Huh-7 cells; assay type: cell-based; conditions: for nuclear transport of YAP: HCC cells (Huh-7), PRMT1 inhibitor MS023 200 nM or siPRMT1
T2 sequence (P46937 whole entry): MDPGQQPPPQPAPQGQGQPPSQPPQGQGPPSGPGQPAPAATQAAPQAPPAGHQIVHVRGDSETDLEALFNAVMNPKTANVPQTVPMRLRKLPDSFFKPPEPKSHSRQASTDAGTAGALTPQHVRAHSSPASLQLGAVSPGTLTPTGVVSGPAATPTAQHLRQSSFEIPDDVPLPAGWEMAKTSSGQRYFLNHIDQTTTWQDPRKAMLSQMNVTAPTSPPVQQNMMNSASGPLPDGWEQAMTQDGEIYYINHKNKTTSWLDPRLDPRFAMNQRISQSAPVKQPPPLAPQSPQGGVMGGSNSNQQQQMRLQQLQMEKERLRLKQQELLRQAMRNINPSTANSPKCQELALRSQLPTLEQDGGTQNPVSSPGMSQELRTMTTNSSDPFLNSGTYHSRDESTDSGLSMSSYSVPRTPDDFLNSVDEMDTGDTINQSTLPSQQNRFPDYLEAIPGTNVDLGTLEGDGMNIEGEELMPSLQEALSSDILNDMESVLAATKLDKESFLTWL
Experimental: Huh-7 cells were infected with lenti-YAP-linker-EGFP-rtTA3 followed by infection with lenti-SOX9-linker-mCherry-rtTA3, with selection using puromycin (Sigma-Aldrich, P9620) or Blasticidin S hydrochloride (Yeasen,60218ES10), and then plated on confocal 6-well plates (Biosharp, BS-15-GJM) at a suitable concentration. Approximately 1 h after doxycycline (DOX, Yeasen, 60204ES03) treatment, live cell images were captured every 30 min using an Olympus SpinSR10 microscope at ×200 magnification. For the PLA, the pretreated cell samples were fixed after DOX induction for 12 h. DOX was administered to the infected Huh-7 cells at a concentration of 1 μg/mL.
(§5) Cytoplasmic and nuclear fractionation was accessed by the Minute^TM Cytoplasmic and Nuclear Fractionation kit (Invent, SC-003) following the manufacturer’s recommendations with some modifications made by us to optimize the protocol. Cells were resuspended in pre-chilled cytoplasm extraction buffer and incubated on ice for 5 min. After a thorough one-minute vortex, the supernatant (cytoplasmic proteins) was obtained by centrifuging at 12,000 rpm for 5 min. To eliminate cytoplasmic proteins, the pellet was washed with pre-chilled PBS, and subsequently resuspended in a nuclear extraction buffer. The sample was vortexed thoroughly for 3 min in an ice bath, and these steps were repeated four times. The precipitate was discarded, and the supernatant (nuclear proteins) was saved for further analysis.

Huh-7 xenograft = experiment: Huh-7 subcutaneous xenograft model; assay type: in vivo, BALB/c nude mice
Experimental: as §4

YAP [5] = target: T2, YAP; experiment: MST binding to YAP protein; design: made in house; host or cells: Escherichia coli; conditions: 50 mM Tris-HCl pH 7.4, 150 mM NaCl, 0.05% Tween-20, effect of D125A mutation on S-A1 binding
Experimental: as §1

PLC cells = experiment: YAP-induced gene expression and malignant features of PLC cells; assay type: cell-based; conditions: PLC cells infected with lenti-YAP; siRNA 20 nmol/L
Experimental: as §3

YAP-TEAD interaction = conditions: cited from earlier work
Text: (§6) The formation of YAP-partner complexes under certain pathological conditions makes YAP an ideal drug target.[44]–[46] […] In light of this, impeding ...

ovarian cancer = conditions: cited from earlier work
Text: as §6

Huh-7 cells = experiment: TEAD activity and oncogenic properties of Huh-7 cells; assay type: cell-based; conditions: Huh-7 cells treated with Lenti-YAP and siPrmt1 simultaneously
YAP-R124me2a = YAP-R124me2a level in cells (immunoblot); assay type: cell-based; conditions: Huh-7 cells co-transfected with V5-YAP and siPRMT1
Experimental: as §2

SOX9 = SOX9 nuclear level in Huh-7 cells; assay type: cell-based; conditions: CDZ 5 nM, 24 h
Experimental: as §5

T1 sequence (P48436 98-181): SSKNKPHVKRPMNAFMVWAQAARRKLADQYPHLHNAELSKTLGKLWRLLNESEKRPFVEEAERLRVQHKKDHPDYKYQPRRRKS

## R124K: YAP peptide (aa 115–135) with R124K mutation (AGALTPQHVKAHSSPASLQLG; UniProt P46937 115-135, looked up, variant R124K)
SOX9-HMG domain
  binding to SOX9-HMG (MST): abolished

## Pep-S-A1: S-A1 linked to a cell-penetrating peptide (Pep) via a di-glycine linker (HLYVSPWGGAFMVWAQAARRKLADQ)
YAP-SOX9 interaction [1]; HCC cells (Huh-7), peptides at indicated concentrations for 24 h
  disruption of YAP-SOX9 interaction (Co-IP): disrupted the YAP-SOX9 interaction in HCC cells in a dose-dependent manner
CTGF, CYR61 and AREG
  YAP-target gene expression: inhibited YAP-target gene expression
[2]; orthotopic HCC, IHC, tail vein every 5 days
  YAP nuclear aggregation in tumor tissues: notably inhibited YAP nuclear aggregation
[2]; orthotopic HCC, qPCR of CTGF, CYR61 and AREG
  downstream gene expression in tumor tissues: notably inhibited YAP nuclear aggregation and downstream gene expression in the tumor tissues
[2]; orthotopic HCC, tail vein every 5 days, compared with Pep-D125A, eight animals per group
  emitted bioluminescence: significantly reduced the emitted bioluminescence
[2]; tail vein every 5 days, compared with Pep-D125A, eight animals per group
  tumor growth (orthotopic HCC): significantly reduced the emitted bioluminescence and tumor growth compared with Pep-D125A
Hep3B cells
  proliferation of Hep3B cells: inhibited the proliferation of Hep3B cells
SOX9^KO Huh-7 cells
  proliferation of SOX9KO Huh-7 cells: had no effect on SOX9^KO Huh-7 cells
YAP-TEAD; Huh-7 cells, 8×GTIIC reporter, 10 μM
  YAP-TEAD activity: suppressed YAP-TEAD activity
HCC cells
  HCC cell proliferation: inhibited HCC cell proliferation
YAP-SOX9 interaction [3]
  disruption of YAP-SOX9 interaction (PLA): disrupted the YAP-SOX9 interaction in HCC cells in a dose-dependent manner
YAP [4]; Huh-7 cells, live cell-imaging
  nuclear YAP levels: reduced nuclear YAP levels
Huh-7 xenograft; Huh-7 xenograft, IHC, 8 mg/kg
  YAP nuclear staining in tumor tissues: reduced YAP nuclear staining
Huh-7 xenograft; Huh-7 xenograft, qPCR of CTGF, CYR61 and AREG
  downstream gene transcription in tumor tissues: reduced YAP nuclear staining and downstream gene transcription in the tumor tissues
Huh-7 xenograft; nude mice, intratumoral injection, twice weekly (day 1 and day 4), eight mice per group
  tumor growth (Huh-7 subcutaneous xenograft): dose-dependently suppressed tumor growth

## S-A1-D125A: S-A1 peptide with D125A mutation (AFMVWAQAARRKLAAQ)
YAP [5]
  binding to YAP (MST): abolished this binding

## siSOX9: siRNA CCACCUUCACCUACAUGAAtt (guide CCACCUUCACCUACAUGAATT; chemistry not given here)
PLC cells
  YAP-induced gene expression and malignant features: notably attenuate the YAP-induced gene expression and malignant features of PLC cells

## verteporfin
YAP-TEAD interaction
  YAP-TEAD interaction: blocked the YAP-TEAD interaction
Ovarian cancer
  ovarian cancer growth in mice: suppressed ovarian cancer growth in mice

## siPRMT1: siRNA GAGUUCACACGCUGCCACAtt (guide GAGUUCACACGCUGCCACATT; chemistry not given here)
YAP-SOX9 interaction [1]; Huh-7 cells co-transfected with V5-YAP and siPRMT1
  YAP-SOX9 interaction: reduced YAP-SOX9 interaction
YAP-TEAD; Huh-7 cells transfected with siPRMT1
  YAP activity (8×GTIIC reporter): decreased YAP activity
Huh-7 cells
  TEAD activity and oncogenic properties triggered by YAP: significantly reversed the elevated TEAD activity and oncogenic properties of Huh-7 cells triggered by YAP
YAP [4]; fractionation and immunoblot
  nuclear transport of YAP: remarkedly blocked the nuclear transport of YAP in HCC cells
YAP-R124me2a
  YAP-R124me2a level: decreased the YAP-R124me2a level

## CC(C)Oc1ccc(-c2c[nH]cc2CN(C)CCN)cc1 [MS023]
YAP [4]; fractionation and immunoblot
  nuclear transport of YAP: remarkedly blocked the nuclear transport of YAP in HCC cells

## Clc1ccc(C(c2ccc(Cl)cc2)n2cc[n+](CC(OCc3ccc(Cl)cc3Cl)c3ccc(Cl)cc3Cl)c2)cc1 (centres unmarked) [CDZ, calmidazolium chloride]
YAP-TEAD; CDZ 5 nM, 24 h, Huh-7 cells overexpressing YAP or YAP^S127A, 8×GTIIC reporter
  transactivation of the YAP-TEAD reporter: significantly inhibited nuclear translocation of YAP and the transactivation of the YAP-TEAD reporter
SOX9
  nuclear level of SOX9: decreased the nuclear level of SOX9
YAP [4]; CDZ 5 nM, 24 h, Huh-7 cells transfected with V5-YAP, fractionation and immunoblot
  nuclear translocation of YAP: significantly inhibited nuclear translocation of YAP
